Legend:
ROCK1 = ROCK1 (Homo sapiens (Human), UniProt Q13464); details: read-out: ROCK1 Average Ki; 1 μM ATP
Experimental: MRCKα, MRCKβ, ROCK1 and ROCK2 assays were performed using an IMAP fluorescence polarization assay format (Molecular Devices Inc.). […] Typically, dose response analyses were performed over concentration ranges from 0.005-100 μM. […] After 30 min incubation to allow binding reagent to bind phosphorylated peptide, fluorescence polarization was measured on a Tecan Saphire^2 plate reader at excitation (470 nm) and emission (530 nm) wavelengths.

MRCKβ = MRCKβ (Homo sapiens (Human), UniProt Q9Y5S2); assay: MRCKβ kinase assay (IMAP fluorescence polarization); format: biochemical; details: 1 μM ATP; read-out: MRCK-B Average Ki
Text: MRCKα, MRCKβ, ROCK1 and ROCK2 Kinase Assays

Chain of ROCK1 (Q13464 2-1354 limits assumed): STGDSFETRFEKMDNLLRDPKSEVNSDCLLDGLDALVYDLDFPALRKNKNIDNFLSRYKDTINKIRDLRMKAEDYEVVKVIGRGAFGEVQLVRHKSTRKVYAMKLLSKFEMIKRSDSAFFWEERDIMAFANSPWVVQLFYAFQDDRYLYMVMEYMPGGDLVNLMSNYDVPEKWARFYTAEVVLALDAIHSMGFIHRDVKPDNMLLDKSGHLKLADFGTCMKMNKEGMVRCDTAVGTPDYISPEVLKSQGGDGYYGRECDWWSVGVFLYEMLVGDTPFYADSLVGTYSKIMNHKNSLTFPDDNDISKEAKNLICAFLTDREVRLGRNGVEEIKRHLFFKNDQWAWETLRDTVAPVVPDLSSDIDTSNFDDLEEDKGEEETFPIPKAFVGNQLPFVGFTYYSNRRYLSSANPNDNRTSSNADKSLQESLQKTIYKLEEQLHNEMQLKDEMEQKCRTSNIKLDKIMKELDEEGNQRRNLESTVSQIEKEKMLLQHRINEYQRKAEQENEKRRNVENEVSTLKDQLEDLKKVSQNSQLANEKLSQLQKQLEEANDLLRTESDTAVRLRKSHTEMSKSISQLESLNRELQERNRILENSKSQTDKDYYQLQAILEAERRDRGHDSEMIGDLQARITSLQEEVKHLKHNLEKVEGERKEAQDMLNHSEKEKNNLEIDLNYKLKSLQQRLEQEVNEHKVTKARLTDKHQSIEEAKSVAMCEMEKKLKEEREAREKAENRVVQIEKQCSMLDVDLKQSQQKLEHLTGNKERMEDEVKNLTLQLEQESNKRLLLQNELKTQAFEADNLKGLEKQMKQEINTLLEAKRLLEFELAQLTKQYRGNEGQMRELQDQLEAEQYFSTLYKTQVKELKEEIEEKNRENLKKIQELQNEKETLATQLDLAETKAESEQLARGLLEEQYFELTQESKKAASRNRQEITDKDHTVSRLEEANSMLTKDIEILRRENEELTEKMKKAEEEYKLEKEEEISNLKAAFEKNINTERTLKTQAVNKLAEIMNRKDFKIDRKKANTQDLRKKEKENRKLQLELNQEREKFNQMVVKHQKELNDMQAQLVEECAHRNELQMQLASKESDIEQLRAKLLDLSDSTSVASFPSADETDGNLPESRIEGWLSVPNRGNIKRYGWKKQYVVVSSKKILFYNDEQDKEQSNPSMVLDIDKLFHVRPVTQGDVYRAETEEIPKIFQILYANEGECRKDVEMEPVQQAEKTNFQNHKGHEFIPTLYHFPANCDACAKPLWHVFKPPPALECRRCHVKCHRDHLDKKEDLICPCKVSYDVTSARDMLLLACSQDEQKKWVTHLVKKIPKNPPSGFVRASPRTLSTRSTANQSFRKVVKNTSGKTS

Row | Compound | Ki (ROCK1) [nM] | Ki (MRCKβ) [nM]
1 | 7-(3-pyridazin-4-yl-1H-pyrrolo[2,3-b]pyridin-4-yl)-2,7-diazaspiro[4.5]decane [Example E163] | 16.7 | 2.4
2 | NC1CN(c2ccnc3[nH]cc(-c4ccncn4)c23)CCC1F (centres unmarked) [Example E42, 4-fluoro-1-(3-pyrimidin-4-yl-1H-pyrrolo[2,3-b]pyridin-4-yl)piperidin-3-amine] | 79.6 | 0.323
3 | c1cc(-c2c[nH]c3nccc(N4CCCNCC4)c23)cnn1 [Example E43, 4-(1,4-diazepan-1-yl)-3-pyridazin-4-yl-1H-pyrrolo[2,3-b]pyridine] | 59.5 | 2.61
4 | c1ncc(-c2c[nH]c3nccc(N4CCCNCC4)c23)cn1 [Example E44, 4-(1,4-diazepan-1-yl)-3-pyrimidin-5-yl-1H-pyrrolo[2,3-b]pyridine] | 461 | 4.5
5 | N#Cc1c[nH]c2nccc(N3CCCCC3Cc3ccccc3)c12 (centres unmarked) [Example E106, 4-(2-benzyl-1-piperidyl)-1H-pyrrolo[2,3-b]pyridine-3-carbonitrile] | – | 805
6 | c1ncc(-c2c[nH]c3nccc(N4CC[C@]5(CCCN5)C4)c23)cn1 [Example E123, 4-[(5R)-1,7-diazaspiro[4.4]nonan-7-yl]-3-pyrimidin-5-yl-1H-pyrrolo[2,3-b]pyridine] | 100000 | 9.88
7 | c1ncc(-c2c[nH]c3nccc(N4CC[C@@]5(CCCN5)C4)c23)cn1 [Example E124, 4-[(5S)-1,7-diazaspiro[4.4]nonan-7-yl]-3-pyrimidin-5-yl-1H-pyrrolo[2,3-b]pyridine] | 76.9 | 0.947
8 | c1ncc(-c2c[nH]c3nccc(N4CC[C@]5(CCCCN5)C4)c23)cn1 [Example E125, (5R)-2-(3-pyrimidin-5-yl-1H-pyrrolo[2,3-b]pyridin-4-yl)-2,6-diazaspiro[4.5]decane] | 424 | 31.3
9 | c1cc(-c2c[nH]c3nccc(N4CC[C@]5(CCCCN5)C4)c23)ncn1 [Example E127, (5R)-2-(3-pyrimidin-4-yl-1H-pyrrolo[2,3-b]pyridin-4-yl)-2,6-diazaspiro[4.5]decane] | 175 | 11.6
10 | Cc1cnc(-c2c[nH]c3nccc(N4CC[C@]5(CCCCN5)C4)c23)s1 [Example E130, 2-[4-[(5R)-2,6-diazaspiro[4.5]decan-2-yl]-1H-pyrrolo[2,3-b]pyridin-3-yl]-5-methyl-thiazole] | 100000 | 7.23
11 | c1csc(-c2c[nH]c3nccc(N4CC[C@]5(CCCCN5)C4)c23)n1 [Example E132, 2-[4-[(5R)-2,6-diazaspiro[4.5]decan-2-yl]-1H-pyrrolo[2,3-b]pyridin-3-yl]thiazole] | 100000 | 4.11
12 | c1csc(-c2c[nH]c3nccc(N4CC[C@]5(CCCN5)C4)c23)n1 [Example E135, 2-[4-[(5R)-1,7-diazaspiro[4.4]nonan-7-yl]-1H-pyrrolo[2,3-b]pyridin-3-yl]thiazole] | 100000 | 10.3
13 | c1ccc(-c2c[nH]c3nccc(N4CCC5(CCCN5)C4)c23)nc1 (centres unmarked) [Example E137, 4-(1,7-diazaspiro[4.4]nonan-7-yl)-3-(2-pyridyl)-1H-pyrrolo[2,3-b]pyridine] | 100000 | 2.83
14 | c1ccc(-c2c[nH]c3nccc(N4CCCC5(CCCCN5)C4)c23)nc1 (centres unmarked) [Example E138, 8-[3-(2-pyridyl)-1H-pyrrolo[2,3-b]pyridin-4-yl]-1,8-diazaspiro[5.5]undecane] | 319 | 0.0726
15 | c1ccc(-c2c[nH]c3nccc(N4CCC[C@]5(CCCCN5)C4)c23)nc1 [Example E140, (6R)-8-[3-(2-pyridyl)-1H-pyrrolo[2,3-b]pyridin-4-yl]-1,8-diazaspiro[5.5]undecane] | 97.7 | 7.33
16 | c1ccc(-c2c[nH]c3nccc(N4CCC5(CCCCN5)C4)c23)nc1 (centres unmarked) [Example E141, 2-[3-(2-pyridyl)-1H-pyrrolo[2,3-b]pyridin-4-yl]-2,6-diazaspiro[4.5]decane] | 109 | 0.549
17 | Cc1cnc(-c2c[nH]c3nccc(N4CCCC5(CCCN5)C4)c23)s1 (centres unmarked) [Example E143, 2-[4-(1,9-diazaspiro[4.5]decan-9-yl)-1H-pyrrolo[2,3-b]pyridin-3-yl]-5-methyl-thiazole] | 100000 | 0.882
18 | Cc1cnc(-c2c[nH]c3nccc(N4CCC5(CCCCN5)C4)c23)s1 (centres unmarked) [Example E144, 2-[4-(2,6-diazaspiro[4.5]decan-2-yl)-1H-pyrrolo[2,3-b]pyridin-3-yl]-5-methyl-thiazole] | 386 | 0.154
19 | Cc1cnc(-c2c[nH]c3nccc(N4CCCC5(CCCCN5)C4)c23)s1 (centres unmarked) [Example E147, 2-[4-(1,8-diazaspiro[5.5]undecan-8-yl)-1H-pyrrolo[2,3-b]pyridin-3-yl]-5-methyl-thiazole] | 100000 | 0.0924
20 | Cc1cnc(-c2c[nH]c3nccc(N4CCC[C@]5(CCCCN5)C4)c23)s1 [Example E148, 2-[4-[(6R)-1,8-diazaspiro[5.5]undecan-8-yl]-1H-pyrrolo[2,3-b]pyridin-3-yl]-5-methyl-thiazole] | 100000 | 4.02

Row | Compound | Ki (ROCK1) [nM] | Ki (MRCKβ) [nM]
21 | c1csc(-c2c[nH]c3nccc(N4CCCC5(CCCCN5)C4)c23)n1 (centres unmarked) [Example E149, 2-[4-(1,8-diazaspiro[5.5]undecan-8-yl)-1H-pyrrolo[2,3-b]pyridin-3-yl]thiazole] | 304 | 0.0633
22 | c1csc(-c2c[nH]c3nccc(N4CCC[C@]5(CCCCN5)C4)c23)n1 [Example E151, 2-[4-[(6R)-1,8-diazaspiro[5.5]undecan-8-yl]-1H-pyrrolo[2,3-b]pyridin-3-yl]thiazole] | 114 | 3.21
23 | Cc1cnc(-c2c[nH]c3nccc(N4CCC5(CCN5)C4)c23)s1 (centres unmarked) [Example E152, 2-[4-(1,7-diazaspiro[3.4]octan-7-yl)-1H-pyrrolo[2,3-b]pyridin-3-yl]-5-methyl-thiazole] | 100000 | 4.65
24 | Cc1cnc(-c2c[nH]c3nccc(N4CCCC5(CCN5)C4)c23)s1 (centres unmarked) [Example E153, 2-[4-(1,8-diazaspiro[3.5]nonan-8-yl)-1H-pyrrolo[2,3-b]pyridin-3-yl]-5-methyl-thiazole] | 100000 | 9.36
25 | c1csc(-c2c[nH]c3nccc(N4CCC5(CCCN5)C4)c23)n1 (centres unmarked) [Example E154, 2-[4-(1,7-diazaspiro[4.4]nonan-7-yl)-1H-pyrrolo[2,3-b]pyridin-3-yl]thiazole] | 239 | 0.37
26 | c1cc(-c2c[nH]c3nccc(N4CCCC5(CNC5)C4)c23)cnn1 [Example E156, 4-(2,6-diazaspiro[3.5]nonan-6-yl)-3-pyridazin-4-yl-1H-pyrrolo[2,3-b]pyridine] | 57.4 | 1.69
27 | Cc1csc(-c2c[nH]c3nccc(N4CCCC5(CCCCN5)C4)c23)n1 (centres unmarked) [Example E158, 2-[4-(1,8-diazaspiro[5.5]undecan-8-yl)-1H-pyrrolo[2,3-b]pyridin-3-yl]-4-methyl-thiazole] | 100000 | 0.36
28 | Cc1nccc(-c2c[nH]c3nccc(N4CCCC5(CCCCN5)C4)c23)n1 (centres unmarked) [Example E160, 8-[3-(2-methylpyrimidin-4-yl)-1H-pyrrolo[2,3-b]pyridin-4-yl]-1,8-diazaspiro[5.5]undecane] | 100000 | 2.76
29 | c1cc(-c2c[nH]c3nccc(N4CCC5(CCCN5)C4)c23)cnn1 (centres unmarked) [Example E161, 4-(1,7-diazaspiro[4.4]nonan-7-yl)-3-pyridazin-4-yl-1H-pyrrolo[2,3-b]pyridine] | 34.1 | 0.933
30 | c1cc(-c2c[nH]c3nccc(N4CCC5(CCCCN5)C4)c23)cnn1 (centres unmarked) [Example E162, 2-(3-pyridazin-4-yl-1H-pyrrolo[2,3-b]pyridin-4-yl)-2,6-diazaspiro[4.5]decane] | 16.9 | 0.219
31 | c1cc(-c2c[nH]c3nccc(N4CCC5(CCNC5)C4)c23)cnn1 (centres unmarked) [Example E164, 4-(2,7-diazaspiro[4.4]nonan-2-yl)-3-pyridazin-4-yl-1H-pyrrolo[2,3-b]pyridine] | 0.448 | 1.12
32 | N#Cc1c[nH]c2nccc(N3CCCC4(CCCCN4)C3)c12 (centres unmarked) [Example E165, 4-(1,8-diazaspiro[5.5]undecan-8-yl)-1H-pyrrolo[2,3-b]pyridine-3-carbonitrile] | 174 | 0.249
33 | Cc1ncc(-c2c[nH]c3nccc(N4CCCC5(CCCCN5)C4)c23)cn1 (centres unmarked) [Example E166, 8-[3-(2-methylpyrimidin-5-yl)-1H-pyrrolo[2,3-b]pyridin-4-yl]-1,8-diazaspiro[5.5]undecane] | 100000 | 0.786
34 | Cc1noc(C)c1-c1c[nH]c2nccc(N3CCCC4(CCCCN4)C3)c12 (centres unmarked) [Example E167, 4-[4-(1,8-diazaspiro[5.5]undecan-8-yl)-1H-pyrrolo[2,3-b]pyridin-3-yl]-3,5-dimethyl-isoxazole] | 100000 | 108
35 | c1cc(-c2c[nH]c3nccc(N4CCC[C@]5(CCCCN5)C4)c23)cnn1 [Example E173, (6R)-8-(3-pyridazin-4-yl-1H-pyrrolo[2,3-b]pyridin-4-yl)-1,8-diazaspiro[5.5]undecane] | 294 | 1.18
36 | N#Cc1c[nH]c2nccc(N3CCC4(CCCN4)C3)c12 (centres unmarked) [Example E185, 4-(1,7-diazaspiro[4.4]nonan-7-yl)-1H-pyrrolo[2,3-b]pyridine-3-carbonitrile] | 13.6 | 1.92
37 | CN(C)C(=O)C1(N)CCN(c2ccnc3[nH]cc(-c4cncnc4)c23)CC1 [Example E198, 4-amino-N,N-dimethyl-1-(3-pyrimidin-5-yl-1H-pyrrolo[2,3-b]pyridin-4-yl)piperidine-4-carboxamide] | – | 42.9
38 | N#Cc1c[nH]c2nccc(N3CCC[C@H]3C(=O)N3CCOCC3)c12 [Example E202, 4-[(2S)-2-(morpholine-4-carbonyl)pyrrolidin-1-yl]-1H-pyrrolo[2,3-b]pyridine-3-carbonitrile] | – | 992
39 | N#Cc1c[nH]c2nccc(N3CCC[C@H]3C(=O)N3CCCCC3)c12 [Example E203, 4-[(2S)-2-(piperidine-1-carbonyl)pyrrolidin-1-yl]-1H-pyrrolo[2,3-b]pyridine-3-carbonitrile] | – | 804

From patent publication US11447505B1, “Pyrrolo[2,3-b]pyridine compounds and their use in the treatment of cancer” (priority 2017, dated 2022)
